The test system of test [1] is C. albicans CAF2-1 strain. Nature of the test: Anti-Candida activity, MIC measurement. To be noted: CAF21STRAIN, C. albicans CAF2-1, RPMI1640, 42-48 hours at 35° C., visual inspection, read-out: Anti-Candida Activity (minimum inhibitory concentration, MIC). The class given is cell-based. The essentials:
(§1)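 C. albicans CAF2-1 was grown 48 h at 30° C. in SDB and diluted in RPMI1640 to 1.2×10^3 cells/mL. Frozen A. fumigatus Tsukuba was diluted to 4.5×10^3 cells/mL. Compounds, two-fold serially diluted in DMSO from 2.5 mg/mL, were cultured aerobically with fungi for 42-48 h at 35° C.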

The subject of test [2] is A. fumigatus Tsukuba strain. Briefly: Anti-Aspergillus activity, MIC measurement. The class given is cell-based. To be noted: RPMI1640, 42-48 hours at 35° C., visual inspection, read-out: Anti-Aspergillus Activity (minimum inhibitory concentration, MIC). The essentials: as §1

In patent US8158657B2, “Heterocycles substituted pyridine derivatives and antifungal agent containing thereof” (Eisai R&D Management Co., Ltd., priority 2005, dated 2012) one finds MIC data, which are given here for 35 compounds.

In brackets after ≈: the same amount, converted by molar mass.

Take `Nc1ncc(Cl)cc1-c1cc(Cc2ccc(COc3ccccn3)cc2)no1` [Example 172]: the MIC came to 6.25 µg/mL (≈ 15.9 µM) in test [1] and 12.5 µg/mL (≈ 31.8 µM) in test [2].
On to `Nc1ccc(-c2cc(Cc3ccc(OCc4ccncc4)cc3)no2)cn1` [Example 180], for which the MIC in test [1] was 0.39 µg/mL (≈ 1.09 µM); in test [2], 1.56 µg/mL (≈ 4.35 µM).
The matching figures for `Nc1ncccc1-c1cc(Cc2ccc(Oc3ccccc3F)cc2)no1` [Example 83]: 0.2 µg/mL (≈ 0.553 µM) and 0.2 µg/mL (≈ 0.553 µM).
The matching figures for `Nc1ncccc1-c1cnn(Cc2cccc(Oc3ccccc3)c2)c1` [Example 35, 3-(1-(3-Phenoxy-benzyl)-1H-pyrazol-4-yl)-pyridin-2-ylamine]: 0.2 µg/mL (≈ 0.584 µM) and 1.56 µg/mL (≈ 4.56 µM).
In the case of `Nc1ncccc1-c1cc(Cc2ccc(Oc3cccnc3)cc2)no1` [Example 76, 3-(3-(4-(Pyridin-3-yloxy)-benzyl)-isoxazol-5-yl)-pyridin-2-ylamine], the MIC in test [1] and in test [2] was 1.56 µg/mL (≈ 4.53 µM) each time.
As to `Nc1ncccc1-c1cnn(Cc2ccc(OCc3ccccc3)nc2)c1` [Example 191, 3-(1-(6-Benzyloxy-pyridin-3-ylmethyl)-1H-pyrazol-4-yl)-pyridin-2-ylamine], the MIC in test [1] came to 0.2 µg/mL (≈ 0.56 µM); in test [2], 0.39 µg/mL (≈ 1.09 µM).
Regarding `Nc1ccc(-c2cc(Cc3ccc(Nc4ccccc4)cc3)no2)c(N)n1` [Example 129, 3-(3-(4-Phenylamino-benzyl)-isoxazol-5-yl)-pyridin-2,6-diamine], the MIC in test [1] and in test [2] was 0.2 µg/mL (≈ 0.56 µM) in each case.
Take `Nc1ncccc1-c1cc(Cc2ccc(OCc3ccc(F)cc3F)nc2)no1` [Example 90, 3-(3-(6-(2,4-Difluoro-benzyloxy)-pyridin-3-ylmethyl)-isoxazol-5-yl)-pyridin-2-ylamine]: the MIC in test [1] was determined as 1.56 µg/mL (≈ 3.96 µM); in test [2], 0.39 µg/mL (≈ 0.989 µM).
`COC(=O)c1cccc(COc2ccc(Cc3cc(-c4ccc(N)nc4N)on3)cc2)c1` [Example 213, 3-(4-(5-(2,6-Diamino-pyridin-3-yl)-isoxazol-3-ylmethyl)-phenoxymethyl)benzoic acid methyl ester]: the MIC in test [1] was 6.25 µg/mL (≈ 14.5 µM); in test [2], 1.56 µg/mL (≈ 3.62 µM).
For `COCc1ccc(-c2cc(Cc3ccc(Cc4ccc(C)o4)cc3)no2)c(N)n1` [Example 165], the MIC in test [1] turned out to be 0.78 µg/mL (≈ 2 µM); in test [2], 1.56 µg/mL (≈ 4.01 µM).
As for `Cc1cccc(COc2ccc(Cc3cc(-c4ccc(N)nc4N)on3)cc2)n1` [Example 23, 3-(3-(4-(6-Methyl-pyridin-2-ylmethoxy)-benzyl)-isoxazol-5-yl)-pyridin-2,6-diamine], the figures for the MIC in test [1] and in test [2] were 0.78 µg/mL (≈ 2.01 µM) and 1.56 µg/mL (≈ 4.03 µM), respectively.
The matching figures for `Nc1ncccc1-c1cc(Cc2ccc(Nc3ccccc3)cc2)no1` [Example 69, 3-(3-(4-Phenylamino-benzyl)-isoxazol-5-yl)-pyridin-2-ylamine]: 0.1 µg/mL (≈ 0.292 µM) and 0.2 µg/mL (≈ 0.584 µM).
The matching figures for `Nc1ccc(-c2cc(Cc3ccc(COc4ccccc4)cc3)no2)c(N)n1` [Example 148, 3-(3-(4-Phenoxymethyl-benzyl)-isoxazol-5-yl)-pyridin-2,6-diamine]: 0.2 µg/mL (≈ 0.537 µM) and 0.2 µg/mL (≈ 0.537 µM).
As for `Nc1ccc(-c2cc(Cc3ccc(COc4ccccn4)nc3)no2)c(N)n1` [Example 154], the values for the MIC in test [1] and in test [2] were 0.78 µg/mL (≈ 2.08 µM) and 1.56 µg/mL (≈ 4.17 µM), respectively.
Consider `Nc1ncccc1-c1cc(Cc2ccc(COc3ccccn3)cc2F)no1` [Example 204, 3-(3-(2-Fluoro-4-(pyridin-2-yloxymethyl)-benzyl)-isoxazol-5-yl)-pyridin-2-ylamine], for which the MIC in test [1] stood at 0.2 µg/mL (≈ 0.531 µM); in test [2], 0.39 µg/mL (≈ 1.04 µM).
Turning to `Nc1ccc(-c2cnn(Cc3ccc(Oc4ccccc4)nc3)c2)c(N)n1` [Example 200, 3-(1-(6-Phenoxy-pyridin-3-ylmethyl)-1H-pyrazol-4-yl)-pyridin-2,6-diamine], the MIC in test [1] and in test [2] was 3.13 µg/mL (≈ 8.73 µM) throughout.
Consider `Nc1ncc(F)cc1-c1cc(Cc2ccc(OCc3ccccc3)cc2)no1` [Example 173, 3-(3-(4-Benzyloxy-benzyl)-isoxazol-5-yl)-5-fluoro-pyridin-2-ylamine], for which the MIC came out at 1.56 µg/mL (≈ 4.16 µM) in test [1] and 0.78 µg/mL (≈ 2.08 µM) in test [2].
The matching figures for `CCCCOc1ccc(Cc2cc(-c3ccc(N)nc3N)on2)cc1` [Example 126, 3-(3-(4-Butoxy-benzyl)-isoxazol-5-yl)-pyridin-2,6-diamine]: 1.56 µg/mL (≈ 4.61 µM) and 0.39 µg/mL (≈ 1.15 µM).
The matching figures for `Nc1ncc(F)cc1-c1cc(Cc2ccc(OCc3cc(Cl)ccn3)cc2)no1` [Example 175, 3-(3-(4-(4-Chloro-pyridin-2-ylmethoxy)-benzyl)-isoxazol-5-yl)-5-fluoro-pyridin-2-ylamine]: 0.78 µg/mL (≈ 1.9 µM) and 1.56 µg/mL (≈ 3.8 µM).
The matching figures for `COCC(=O)Nc1ccc(-c2cc(Cc3ccc(OCc4ccccc4)nc3)no2)c(N)n1` [Example 226, N-(6-Amino-5-(3-(6-benzyloxy-pyridin-3-ylmethyl)-isoxazol-5-yl)-pyridin-2-yl)-2-methoxy-acetamide]: 0.39 µg/mL (≈ 0.875 µM) and 0.39 µg/mL (≈ 0.875 µM).
In the case of `Nc1ccc(-c2cc(Cc3cccc(OCc4ccccc4)c3)no2)c(N)n1` [Example 119, 3-(3-(3-Benzyloxy-benzyl)-isoxazol-5-yl)-pyridin-2,6-diamine], the MIC amounted to 0.39 µg/mL (≈ 1.05 µM) in test [1] and 0.78 µg/mL (≈ 2.09 µM) in test [2].
For the compound `Nc1ncccc1-c1cc(Cc2ccc(Oc3cccc(F)c3)nc2)no1` [Example 71, 3-(3-(6-(3-Fluoro-phenoxy)-pyridin-3-ylmethyl)-isoxazol-5-yl)-pyridin-2-ylamine], the MIC worked out at 0.2 µg/mL (≈ 0.552 µM) in test [1] and 0.39 µg/mL (≈ 1.08 µM) in test [2].
The matching figures for `Nc1ncccc1-c1cc(Cc2ccc(Oc3ccccn3)cc2)no1` [Example 209, 3-(3-(4-(Pyridin-2-yloxy)-benzyl)-isoxazol-5-yl)-pyridin-2-ylamine]: 0.2 µg/mL (≈ 0.581 µM) and 0.39 µg/mL (≈ 1.13 µM).
The matching figures for `COCc1ccc(-c2cc(Cc3ccc(Oc4ccccc4)nc3)no2)c(N)n1` [Example 167]: 1.56 µg/mL (≈ 4.02 µM) and 0.78 µg/mL (≈ 2.01 µM).
The matching figures for `Nc1ncccc1-c1cc(Cc2ccc(CCC3CCCO3)cc2)no1` (stereo not shown) [Example 82, 3-(3-(4-(2-(Tetrahydrofuran-2-yl)-ethyl)-benzyl)-isoxazol-5-yl)-pyridin-2-ylamine]: 0.2 µg/mL (≈ 0.572 µM) and 0.39 µg/mL (≈ 1.12 µM).
`Nc1ncccc1-c1cc(Cc2ccc(OCc3ccc(Cl)cn3)cc2)no1` [Example 63, 3-(3-(4-(5-Chloro-pyridin-2-ylmethoxy)-benzyl)-isoxazol-5-yl)-pyridin-2-ylamine]: the MIC in test [1] and in test [2] was 0.78 µg/mL (≈ 1.99 µM) each time.
As to `Cc1ccc(Cc2ccc(Cc3cc(-c4cccnc4N)on3)cc2)o1` [Example 46, 3-(3-(4-(5-Methyl-furan-2-ylmethyl)-benzyl)-isoxazol-5-yl)-pyridin-2-ylamine], the MIC turned out to be 0.05 µg/mL (≈ 0.145 µM) in test [1] and 0.2 µg/mL (≈ 0.579 µM) in test [2].
Take `Nc1ccc(-c2cc(Cc3ccc(OCc4cc(Cl)ccn4)cc3)no2)cn1` [Example 183, 5-(3-(4-(4-Chloro-pyridin-2-ylmethoxy)-benzyl)-isoxazol-5-yl)-pyridin-2-ylamine]: the MIC in test [1] is 0.2 µg/mL (≈ 0.509 µM); in test [2] it was 0.78 µg/mL (≈ 1.99 µM).
As to `Nc1ncccc1-c1cc(Cc2ccc(OCc3cccnc3)cc2)no1` [Example 50, 3-(3-(4-(Pyridin-3-ylmethoxy)-benzyl)-isoxazol-5-yl)-pyridin-2-ylamine], the MIC was 0.78 µg/mL (≈ 2.18 µM) in test [1] and 1.56 µg/mL (≈ 4.35 µM) in test [2].
The matching figures for `Nc1ccc(-c2cc(Cc3ccc(Oc4ccccc4)cn3)no2)c(N)n1` [Example 121, 3-(3-(5-Phenoxy-pyridin-2-ylmethyl)-isoxazol-5-yl)-pyridin-2,6-diamine]: 0.39 µg/mL (≈ 1.09 µM) and 0.78 µg/mL (≈ 2.17 µM).
Turning to `Nc1ncccc1-c1cc(Cc2cccc(OCc3ccccn3)c2)no1` [Example 60, 3-(3-(3-(Pyridin-2-ylmethoxy)-benzyl)-isoxazol-5-yl)-pyridin-2-ylamine], the results for the MIC in test [1] and in test [2] were 0.2 µg/mL (≈ 0.558 µM) and 1.56 µg/mL (≈ 4.35 µM), respectively.
The matching figures for `CN(C)c1ncccc1-c1cc(Cc2ccc(OCc3ccccc3)cc2)no1` [Example 228, (3-(3-(4-Benzyloxy-benzyl)-isoxazol-5-yl)-pyridin-2-yl)-dimethyl-amine]: 0.78 µg/mL (≈ 2.02 µM) and 0.78 µg/mL (≈ 2.02 µM).
As for `N#Cc1cccc(COc2ccc(Cc3cc(-c4ccc(N)nc4N)on3)cc2)c1` [Example 212, 3-(4-(5-(2,6-Diamino-pyridin-3-yl)-isoxazol-3-ylmethyl)-phenoxymethyl)benzonitrile], the MIC in test [1] and in test [2] was 0.78 µg/mL (≈ 1.96 µM) throughout.
With `Nc1ncccc1-c1cc(Cc2ccc(Oc3ccccc3F)nc2)no1` [Example 74, 3-(3-(6-(2-Fluoro-phenoxy)-pyridin-3-ylmethyl)-isoxazol-5-yl)-pyridin-2-ylamin], the MIC was 0.1 µg/mL (≈ 0.276 µM) in test [1] and 0.2 µg/mL (≈ 0.552 µM) in test [2].
The matching figures for `Nc1ccc(-c2cc(Cc3ccc(Oc4ccccc4F)nc3)no2)cn1` [Example 185, 5-(3-(6-(2-Fluoro-phenoxy)-pyridin-3-ylmethyl)-isoxazol-5-yl)-pyridin-2-ylamine]: 0.78 µg/mL (≈ 2.15 µM) and 0.78 µg/mL (≈ 2.15 µM).
